Test results as given in ChEMBL document CHEMBL4184165, “Unique arginine array improves cytosolic localization of hydrocarbon-stapled peptides” (Bioorg Med Chem, 2018).
Where a SMILES comes first, the peptide text is derived from it. Bridges are numbered along the chain shown (N, C = ends). [ ]: non-standard residue; d: D form. The star is where a group is joined. X1 = CCN(CC)c1ccc2c(-c3ccc(S(=O)(=O)*)cc3S(=O)(=O)[O-])c3ccc(=[N+](CC)CC)cc-3oc2c1; R8 = C=CCCCCCC[C@@](C)(N)C(=O)O; S5 = C=CCCC[C@](C)(N)C(=O)O; βAla = NCCC(=O)O

Tests used:
[1] = Drug uptake in cytosol of human HeLa cells at 500 nM after 30 mins by FCS analysis; assay type: ADME, subcellular; conditions: 0.5 h, 0.5 µM
[2] = Drug uptake in cytosol of human HeLa cells at 500 nM after 30 mins by FCS analysis relative to control; assay type: ADME, subcellular; conditions: 0.5 h, 0.5 µM
[3] = test system: SJSA-1; assay: Cytotoxicity in human SJSA1 cells over expressing human DM2 after 24 hrs by CellTiter-Glo assay; assay type: functional, cell-based; conditions: SJSA-1, 24 h

Structure (SMILES) | Drug uptake [1] | Drug uptake [2] | EC50 [3]
CCN(CC)c1ccc2c(-c3ccc(S(=O)(=O)NCCC(=O)N[C@@H](CC(C)C)C(=O)N[C@@H](CO)C(=O)N[C@@H](CCC(N)=O)C(=O)N[C@@H](CCC(=O)O)C(=O)N[C@H](C(=O)N[C@@H](Cc4ccccc4)C(=O)N[C@]4(C)CCCCCC/C=C/CCC[C@@](C)(C(=O)N[C@@H](CCC(=O)O)C(=O)N[C@@H](CC(N)=O)C(N)=O)NC(=O)[C@H](CC(C)C)NC(=O)[C@H](CC(C)C)NC(=O)[C@H](CCCCN)NC(=O)[C@H](Cc5c[nH]c6ccccc56)NC(=O)[C@H](CC(C)C)NC(=O)[C@H](CC(=O)O)NC4=O)[C@@H](C)O)cc3S(=O)(=O)[O-])c3ccc(=[N+](CC)CC)cc-3oc2c1 | 62 nM | 12.4% | 
CC(=O)N[C@@H](CC(C)C)C(=O)N[C@@H](CCCNC(=N)N)C(=O)N[C@@H](CCCNC(=N)N)C(=O)N[C@@H](CCC(=O)O)C(=O)N[C@H](C(=O)N[C@@H](Cc1ccccc1)C(=O)N[C@]1(C)CCCCCC/C=C/CCC[C@@](C)(C(=O)N[C@@H](CCCNC(=N)N)C(=O)N[C@@H](CCCNC(=N)N)C(N)=O)NC(=O)[C@H](CC(C)C)NC(=O)[C@H](CCCNC(=N)N)NC(=O)[C@H](CCCCN)NC(=O)[C@H](Cc2c[nH]c3ccccc23)NC(=O)[C@H](CC(C)C)NC(=O)[C@H](CC(=O)O)NC1=O)[C@@H](C)O (Ac-LRRETF[R8]DLWKRL[S5]RR-NH2; staple (E) 7-14) |  |  | 3.2 µM
CC(=O)N[C@@H](CC(C)C)C(=O)N[C@@H](CCCNC(=N)N)C(=O)N[C@@H](CCCNC(=N)N)C(=O)N[C@@H](CCC(=O)O)C(=O)N[C@H](C(=O)N[C@@H](Cc1ccccc1)C(=O)N[C@]1(C)CCCCCC/C=C/CCC[C@@](C)(C(=O)N[C@@H](CCCNC(=N)N)C(=O)N[C@@H](CC(N)=O)C(N)=O)NC(=O)[C@H](CC(C)C)NC(=O)[C@H](CCCNC(=N)N)NC(=O)[C@H](CCCCN)NC(=O)[C@H](Cc2c[nH]c3ccccc23)NC(=O)[C@H](CCCNC(=N)N)NC(=O)[C@H](CC(=O)O)NC1=O)[C@@H](C)O (Ac-LRRETF[R8]DRWKRL[S5]RN-NH2; staple (E) 7-14) |  |  | 7.7 µM
CC(=O)N[C@@H](CC(C)C)C(=O)N[C@@H](CO)C(=O)N[C@@H](CCC(N)=O)C(=O)N[C@@H](CCC(=O)O)C(=O)N[C@H](C(=O)N[C@@H](C)C(=O)N[C@]1(C)CCCCCC/C=C/CCC[C@@](C)(C(=O)N[C@@H](CCCNC(=N)N)C(=O)N[C@@H](CCCNC(=N)N)C(N)=O)NC(=O)[C@H](CC(C)C)NC(=O)[C@H](CCCNC(=N)N)NC(=O)[C@H](CCCNC(=N)N)NC(=O)[C@H](Cc2c[nH]c3ccccc23)NC(=O)[C@H](CC(C)C)NC(=O)[C@H](CCCNC(=N)N)NC1=O)[C@@H](C)O (Ac-LSQETA[R8]RLWRRL[S5]RR-NH2; staple (E) 7-14) |  |  | 4.8 µM
CC(=O)N[C@@H](CC(C)C)C(=O)N[C@@H](CO)C(=O)N[C@@H](CCC(N)=O)C(=O)N[C@@H](CCC(=O)O)C(=O)N[C@H](C(=O)N[C@@H](Cc1ccccc1)C(=O)N[C@]1(C)CCCCCC/C=C/CCC[C@@](C)(C(=O)N[C@@H](CCCNC(=N)N)C(=O)N[C@@H](CCCNC(=N)N)C(N)=O)NC(=O)[C@H](CC(C)C)NC(=O)[C@H](CCCNC(=N)N)NC(=O)[C@H](CCCNC(=N)N)NC(=O)[C@H](Cc2c[nH]c3ccccc23)NC(=O)[C@H](CC(C)C)NC(=O)[C@H](CCCNC(=N)N)NC1=O)[C@@H](C)O (Ac-LSQETF[R8]RLWRRL[S5]RR-NH2; staple (E) 7-14) |  |  | 1.9 µM
CC(=O)N[C@@H](CCC(N)=O)C(=O)N[C@@H](CO)C(=O)N[C@@H](CCC(N)=O)C(=O)N[C@@H](CCC(N)=O)C(=O)N[C@H](C(=O)N[C@@H](Cc1ccccc1)C(=O)N[C@]1(C)CCCCCC/C=C/CCC[C@@](C)(C(=O)N[C@@H](CCC(N)=O)C(=O)N[C@@H](CC(N)=O)C(N)=O)NC(=O)[C@H](CC(C)C)NC(=O)[C@H](CC(C)C)NC(=O)[C@H](CCCCN)NC(=O)[C@H](Cc2c[nH]c3ccccc23)NC(=O)[C@H](CC(C)C)NC(=O)[C@H](CC(N)=O)NC1=O)[C@@H](C)O (Ac-QSQQTF[R8]NLWKLL[S5]QN-NH2; staple (E) 7-14) |  |  | 10.2 µM
CC(=O)N[C@@H](CCCNC(=N)N)C(=O)N[C@@H](CCCNC(=N)N)C(=O)N[C@@H](CCCNC(=N)N)C(=O)N[C@@H](CCCNC(=N)N)C(=O)N[C@@H](CCCNC(=N)N)C(=O)N[C@@H](Cc1ccccc1)C(=O)N[C@]1(C)CCCCCC/C=C/CCC[C@@](C)(C(=O)N[C@@H](CCC(=O)O)C(=O)N[C@@H](CC(N)=O)C(N)=O)NC(=O)[C@H](CC(C)C)NC(=O)[C@H](CC(C)C)NC(=O)[C@H](CCCCN)NC(=O)[C@H](Cc2c[nH]c3ccccc23)NC(=O)[C@H](CC(C)C)NC(=O)[C@H](CC(=O)O)NC1=O (Ac-RRRRRF[R8]DLWKLL[S5]EN-NH2; staple (E) 7-14) |  |  | 1.6 µM
CC(=O)N[C@@H](CCCNC(=N)N)C(=O)N[C@@H](CO)C(=O)N[C@@H](CCC(N)=O)C(=O)N[C@@H](CCC(=O)O)C(=O)N[C@@H](CCCNC(=N)N)C(=O)N[C@@H](Cc1ccccc1)C(=O)N[C@]1(C)CCCCCC/C=C/CCC[C@@](C)(C(=O)N[C@@H](CCCNC(=N)N)C(=O)N[C@@H](CCCNC(=N)N)C(N)=O)NC(=O)[C@H](CC(C)C)NC(=O)[C@H](CCCNC(=N)N)NC(=O)[C@H](CCCCN)NC(=O)[C@H](Cc2c[nH]c3ccccc23)NC(=O)[C@H](CC(C)C)NC(=O)[C@H](CC(=O)O)NC1=O (Ac-RSQERF[R8]DLWKRL[S5]RR-NH2; staple (E) 7-14) |  |  | 7.7 µM
CC(=O)N[C@@H](CCCNC(=N)N)C(=O)N[C@@H](CO)C(=O)N[C@@H](CCC(N)=O)C(=O)N[C@@H](CCC(=O)O)C(=O)N[C@@H](CCCNC(=N)N)C(=O)N[C@@H](Cc1ccccc1)C(=O)N[C@]1(C)CCCCCC/C=C/CCC[C@@](C)(C(=O)N[C@@H](CCC(=O)O)C(=O)N[C@@H](CC(N)=O)C(N)=O)NC(=O)[C@H](CC(C)C)NC(=O)[C@H](CCCNC(=N)N)NC(=O)[C@H](CCCNC(=N)N)NC(=O)[C@H](Cc2c[nH]c3ccccc23)NC(=O)[C@H](CC(C)C)NC(=O)[C@H](CCCNC(=N)N)NC1=O (Ac-RSQERF[R8]RLWRRL[S5]EN-NH2; staple (E) 7-14) |  |  | 7.2 µM
CC(=O)N[C@@H](CCCNC(=N)N)C(=O)N[C@@H](CO)C(=O)N[C@@H](CCC(N)=O)C(=O)N[C@@H](CCCNC(=N)N)C(=O)N[C@@H](CCCNC(=N)N)C(=O)N[C@@H](Cc1ccccc1)C(=O)N[C@]1(C)CCCCCC/C=C/CCC[C@@](C)(C(=O)N[C@@H](CCC(=O)O)C(=O)N[C@@H](CC(N)=O)C(N)=O)NC(=O)[C@H](CC(C)C)NC(=O)[C@H](CC(C)C)NC(=O)[C@H](CCCNC(=N)N)NC(=O)[C@H](Cc2c[nH]c3ccccc23)NC(=O)[C@H](CC(=O)O)NC(=O)[C@H](CCCNC(=N)N)NC1=O (Ac-RSQRRF[R8]RDWRLL[S5]EN-NH2; staple (E) 7-14) |  |  | 1.9 µM
CCN(CC)c1ccc2c(-c3ccc(S(=O)(=O)NCCC(=O)N[C@@H](CC(C)C)C(=O)N[C@@H](CO)C(=O)N[C@@H](CCC(N)=O)C(=O)N[C@@H](CCC(=O)O)C(=O)N[C@H](C(=O)N[C@@H](Cc4ccccc4)C(=O)N[C@]4(C)CCCCCC/C=C/CCC[C@@](C)(C(=O)N[C@@H](CCCNC(=N)N)C(=O)N[C@@H](CCCNC(=N)N)C(N)=O)NC(=O)[C@H](CC(C)C)NC(=O)[C@H](CCCNC(=N)N)NC(=O)[C@H](CCCNC(=N)N)NC(=O)[C@H](Cc5c[nH]c6ccccc56)NC(=O)[C@H](CC(C)C)NC(=O)[C@H](CCCNC(=N)N)NC4=O)[C@@H](C)O)cc3S(=O)(=O)[O-])c3ccc(=[N+](CC)CC)cc-3oc2c1 ({X1-βAla}-LSQETF[R8]RLWRRL[S5]RR-NH2; staple (E) 7-14) | 284 nM |  | 
CCN(CC)c1ccc2c(-c3ccc(S(=O)(=O)NCCC(=O)N[C@@H](CCC(N)=O)C(=O)N[C@@H](CO)C(=O)N[C@@H](CCC(N)=O)C(=O)N[C@@H](CCC(N)=O)C(=O)N[C@H](C(=O)N[C@@H](Cc4ccccc4)C(=O)N[C@]4(C)CCCCCC/C=C/CCC[C@@](C)(C(=O)N[C@@H](CCC(N)=O)C(=O)N[C@@H](CC(N)=O)C(N)=O)NC(=O)[C@H](CC(C)C)NC(=O)[C@H](CC(C)C)NC(=O)[C@H](CCCCN)NC(=O)[C@H](Cc5c[nH]c6ccccc56)NC(=O)[C@H](CC(C)C)NC(=O)[C@H](CC(N)=O)NC4=O)[C@@H](C)O)cc3S(=O)(=O)[O-])c3ccc(=[N+](CC)CC)cc-3oc2c1 ({X1-βAla}-QSQQTF[R8]NLWKLL[S5]QN-NH2; staple (E) 7-14) | 256 to 260 nM | 51.9% | 
CCN(CC)c1ccc2c(-c3ccc(S(=O)(=O)NCCC(=O)N[C@@H](CCCNC(=N)N)C(=O)N[C@@H](CO)C(=O)N[C@@H](CCC(N)=O)C(=O)N[C@@H](CCC(=O)O)C(=O)N[C@@H](CCCNC(=N)N)C(=O)N[C@@H](Cc4ccccc4)C(=O)N[C@]4(C)CCCCCC/C=C/CCC[C@@](C)(C(=O)N[C@@H](CCC(=O)O)C(=O)N[C@@H](CC(N)=O)C(N)=O)NC(=O)[C@H](CC(C)C)NC(=O)[C@H](CCCNC(=N)N)NC(=O)[C@H](CCCNC(=N)N)NC(=O)[C@H](Cc5c[nH]c6ccccc56)NC(=O)[C@H](CC(C)C)NC(=O)[C@H](CCCNC(=N)N)NC4=O)cc3S(=O)(=O)[O-])c3ccc(=[N+](CC)CC)cc-3oc2c1 ({X1-βAla}-RSQERF[R8]RLWRRL[S5]EN-NH2; staple (E) 7-14) | 69 nM | 13.8% | 
COc1ccc(C2=N[C@@H](c3ccc(Cl)cc3)[C@@H](c3ccc(Cl)cc3)N2C(=O)N2CCNC(=O)C2)c(OC(C)C)c1 [NUTLIN-3] |  |  | 22.8 µM
